# Structures can show the parent of a compound that is named as a salt.
# Legend:
# [1] = Storage at elevated temperature and relative humidity, re-analysis by XRPD; assay type: physicochemical; details: for XRPD following storage at elevated temperatures and relative humidity: 28 days
# Text: X-ray Powder Diffraction (XRPD or PXRD) diffractograms were collected on a Bruker AXS C2 GADDS, Bruker AXS DB Advance, PANalytical Empyrean, or similar diffractometer using Cu Kα radiation.
# Proton NMR was consistent with the proposed structure. However, as the methylene protons of the citric acid overlapped with the D6-DMSO reference peak, the stoichiometric equivalence of citrate acid is slightly offset. […] Differential scanning calorimetry thermal events included a single broad endotherm at 204.5° C. (366.9 J/g).
# Proton NMR analysis was consistent with the proposed structure, although there was overlap of the methylene protons of the citrate and the D6-DMSO reference peak. […] (327.7 J/g).
# These additional peaks remained throughout the 28 days storage period. This may be caused by dehydration of the hydrate. Proton NMR analysis was consistent with the proposed structure, although there was overlap of the methylene protons of the citrate and the D6-DMSO reference peak. […] Differential scanning calorimetry consisted of a broad, asymmetrical endotherm between 25-115° C. (70.2 J/g) followed by a large endotherm at 186.0° C. (313.4 J/g), possibly due to the sample melt and dissolution of the salt. […] Water content was determined by Karl Fischer analysis to be 3.3%, equating to 1 molar equivalent of water.
# [2] = Gravimetric Vapour Sorption (GVS); assay type: physicochemical; details: for Hygroscopicity by GVS analysis / GVS uptake: 25° C.; for GVS uptake: between 0-90% RH
# Procedure: Sorption isotherms were obtained using a SMS DVS Intrinsic moisture sorption analyser, controlled by DVS Intrinsic Control software. The sample temperature was maintained at 25° C. by the instrument controls. The humidity was controlled by mixing streams of dry and wet nitrogen, with a total flow rate of 200 ml/min. The relative humidity was measured by a calibrated Rotronic probe (dynamic range of 1.0-100% RH), located near the sample. The weight change, (mass relaxation) of the sample as a function of % RH was constantly monitored by a microbalance (accuracy±0.005 mg).
# Typically, 5-30 mg of sample was placed in a tared mesh stainless steel basket under ambient conditions. The sample was loaded and unloaded at 40% RH and 25° C. (typical room conditions). A moisture sorption isotherm was performed as outlined below (2 scans per complete cycle). The standard isotherm was performed at 25° C. at 10% RH intervals over a 0-90% RH range. Typically, a double cycle (4 scans) was carried out. Data analysis was carried out within Microsoft Excel using the DVS Analysis Suite.
# The sample was recovered after completion of the isotherm and re-analysed by XRPD.
# [3] = Thermodynamic Aqueous Solubility; assay type: physicochemical; details: aqueous media; for Thermodynamic solubility: 25° C., 24 hours
# Procedure: Aqueous solubility was determined by suspending sufficient compound in relevant media to give a maximum final concentration of ≥10 mg/ml of the parent freeform of the compound. The suspension was equilibrated at 25° C., on a Heidolph plate shaker set to 750 rpm for 24 hours. The pH of the saturated solution was then measured and the suspension filtered through a glass fibre C filter (particle retention 1.2 μm) and diluted appropriately. Quantitation was by HPLC with reference to a standard solution of approximately 0.15 mg/ml in DMSO. Different volumes of the standard, diluted and undiluted sample solutions were injected. The solubility was calculated using the peak areas determined by integration of the peak found at the same retention time as the principal peak in the standard injection.
# [4] = Slurry of mixed TG02 citrate polymorphs in solvents, XRPD of recovered solids (Method B); assay type: physicochemical; details: 4 days
# Procedure: Method B: A homogeneous mixture of TG02 Form X (citrate), TG02 Citrate Pattern 1 of U.S. Pat. No. 9,120,815, and TG02 Citrate Pattern 2 of U.S. Pat. No. 9,120,815 was treated with solvent (20 vol.) and agitated for 4 days at different temperatures (5° C., 25° C., and 50° C.). The recovered solids were air dried and analysed by XRPD.
# CDK1 = CDK1 (Homo sapiens, UniProt P06493); details: cited from earlier work
# CDK2 = CDK2 (Homo sapiens, UniProt P24941); details: cited from earlier work
# CDK5 = CDK5 (Homo sapiens, UniProt Q00535); details: cited from earlier work
# CDK7 = CDK7 (Homo sapiens, UniProt P50613); details: cited from earlier work
# CDK9 = CDK9 (Homo sapiens, UniProt P50750); details: cited from earlier work
# JAK2 = JAK2 (Homo sapiens, UniProt O60674); details: cited from earlier work
# FLT3 = biological target: T1, FLT3 (Homo sapiens, UniProt P36888); details: cited from earlier work
# T1 sequence (P36888 27-993): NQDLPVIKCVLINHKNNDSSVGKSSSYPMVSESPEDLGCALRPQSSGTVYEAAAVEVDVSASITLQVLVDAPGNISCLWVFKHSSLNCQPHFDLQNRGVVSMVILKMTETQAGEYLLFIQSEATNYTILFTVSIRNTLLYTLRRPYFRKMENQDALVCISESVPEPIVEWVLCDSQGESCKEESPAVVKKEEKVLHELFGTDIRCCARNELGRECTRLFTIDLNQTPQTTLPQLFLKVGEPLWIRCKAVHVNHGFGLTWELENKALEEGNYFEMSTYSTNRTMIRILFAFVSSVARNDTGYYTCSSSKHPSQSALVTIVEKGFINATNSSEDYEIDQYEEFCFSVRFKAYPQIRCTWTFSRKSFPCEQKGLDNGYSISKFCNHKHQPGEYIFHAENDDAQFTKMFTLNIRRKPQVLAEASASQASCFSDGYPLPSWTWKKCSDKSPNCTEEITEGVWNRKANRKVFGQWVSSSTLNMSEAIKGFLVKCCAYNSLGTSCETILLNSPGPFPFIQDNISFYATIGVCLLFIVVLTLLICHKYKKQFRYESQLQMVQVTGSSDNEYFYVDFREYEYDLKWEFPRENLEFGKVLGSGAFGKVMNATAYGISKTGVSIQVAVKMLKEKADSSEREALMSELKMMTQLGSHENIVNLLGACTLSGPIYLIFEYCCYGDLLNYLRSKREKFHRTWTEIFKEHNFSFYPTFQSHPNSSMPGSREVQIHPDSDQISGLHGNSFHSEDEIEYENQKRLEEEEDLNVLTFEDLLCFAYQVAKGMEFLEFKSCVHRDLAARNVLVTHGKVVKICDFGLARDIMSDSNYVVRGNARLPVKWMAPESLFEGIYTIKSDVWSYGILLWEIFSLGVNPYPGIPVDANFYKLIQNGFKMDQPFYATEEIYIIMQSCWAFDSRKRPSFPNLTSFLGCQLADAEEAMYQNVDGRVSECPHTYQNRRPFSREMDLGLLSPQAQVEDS
# [5] = system: signaling pathways downstream of CDKs, JAK2 and FLT3 in cancer cells; details: cited from earlier work
# tumor cell lines = details: cited from earlier work
# [6] = system: progenitor cells derived from acute myeloid leukemia (AML) and polycythemia vera patients; details: cited from earlier work
# [7] = 40° C./75% RH, 25° C./97% RH and 60° C./ambient RH
# Sequence of JAK2 (O60674 whole entry): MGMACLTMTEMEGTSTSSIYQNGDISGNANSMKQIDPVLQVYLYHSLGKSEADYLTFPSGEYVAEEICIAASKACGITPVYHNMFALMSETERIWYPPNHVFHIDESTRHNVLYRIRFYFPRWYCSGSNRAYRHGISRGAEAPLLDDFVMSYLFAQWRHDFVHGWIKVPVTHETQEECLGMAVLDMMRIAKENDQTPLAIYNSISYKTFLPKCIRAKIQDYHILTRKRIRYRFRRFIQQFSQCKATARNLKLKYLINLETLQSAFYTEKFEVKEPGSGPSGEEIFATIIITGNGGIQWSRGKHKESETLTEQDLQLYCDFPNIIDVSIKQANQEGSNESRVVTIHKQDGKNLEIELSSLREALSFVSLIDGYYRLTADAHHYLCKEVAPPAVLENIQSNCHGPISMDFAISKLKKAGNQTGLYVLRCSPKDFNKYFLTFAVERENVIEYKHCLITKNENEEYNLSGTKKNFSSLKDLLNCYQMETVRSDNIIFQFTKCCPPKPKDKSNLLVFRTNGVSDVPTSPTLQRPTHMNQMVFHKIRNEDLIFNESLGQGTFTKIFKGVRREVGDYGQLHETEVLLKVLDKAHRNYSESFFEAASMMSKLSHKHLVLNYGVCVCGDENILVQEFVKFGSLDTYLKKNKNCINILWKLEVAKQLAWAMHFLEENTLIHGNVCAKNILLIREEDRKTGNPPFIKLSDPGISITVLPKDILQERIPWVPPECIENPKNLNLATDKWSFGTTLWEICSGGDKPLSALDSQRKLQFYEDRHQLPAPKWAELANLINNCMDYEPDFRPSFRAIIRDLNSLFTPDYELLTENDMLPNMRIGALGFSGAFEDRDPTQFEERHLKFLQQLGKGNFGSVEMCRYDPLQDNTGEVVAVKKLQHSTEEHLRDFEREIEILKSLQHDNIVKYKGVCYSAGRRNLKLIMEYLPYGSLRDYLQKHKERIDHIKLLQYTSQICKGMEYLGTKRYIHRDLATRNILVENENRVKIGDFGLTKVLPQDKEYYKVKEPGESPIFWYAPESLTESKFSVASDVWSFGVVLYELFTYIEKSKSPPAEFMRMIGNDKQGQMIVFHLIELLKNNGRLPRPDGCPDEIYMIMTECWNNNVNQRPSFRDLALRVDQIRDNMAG
# Sequence of CDK7 (P50613 whole entry): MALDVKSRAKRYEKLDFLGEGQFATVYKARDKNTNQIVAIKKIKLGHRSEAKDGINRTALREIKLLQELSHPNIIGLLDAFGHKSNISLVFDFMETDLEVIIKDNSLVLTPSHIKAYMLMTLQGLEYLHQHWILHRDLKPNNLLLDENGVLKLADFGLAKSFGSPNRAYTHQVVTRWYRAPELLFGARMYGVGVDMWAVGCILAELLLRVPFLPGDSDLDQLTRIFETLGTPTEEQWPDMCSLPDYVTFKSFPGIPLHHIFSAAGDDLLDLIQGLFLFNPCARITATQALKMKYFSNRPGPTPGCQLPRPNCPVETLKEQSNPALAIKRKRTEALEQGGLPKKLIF
# Sequence of CDK7 (P51946 whole entry partner): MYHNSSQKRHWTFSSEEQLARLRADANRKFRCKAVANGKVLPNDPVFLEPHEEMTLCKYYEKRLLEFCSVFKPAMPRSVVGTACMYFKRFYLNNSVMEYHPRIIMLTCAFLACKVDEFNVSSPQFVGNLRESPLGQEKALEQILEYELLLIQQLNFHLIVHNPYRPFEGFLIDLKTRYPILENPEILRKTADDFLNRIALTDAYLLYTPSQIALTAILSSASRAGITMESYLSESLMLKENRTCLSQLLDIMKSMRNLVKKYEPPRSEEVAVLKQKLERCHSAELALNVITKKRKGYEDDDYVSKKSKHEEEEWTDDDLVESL
# Sequence of CDK7 (P51948 whole entry partner): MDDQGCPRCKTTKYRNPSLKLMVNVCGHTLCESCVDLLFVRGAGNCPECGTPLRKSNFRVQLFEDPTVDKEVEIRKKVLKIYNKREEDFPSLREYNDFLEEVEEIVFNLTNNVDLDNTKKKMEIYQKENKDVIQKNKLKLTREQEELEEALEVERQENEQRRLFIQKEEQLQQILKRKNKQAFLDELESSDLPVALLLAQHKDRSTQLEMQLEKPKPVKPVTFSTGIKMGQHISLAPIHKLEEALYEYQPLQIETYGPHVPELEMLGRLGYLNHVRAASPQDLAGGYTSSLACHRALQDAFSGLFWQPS
# Sequence of CDK1 (P06493 whole entry): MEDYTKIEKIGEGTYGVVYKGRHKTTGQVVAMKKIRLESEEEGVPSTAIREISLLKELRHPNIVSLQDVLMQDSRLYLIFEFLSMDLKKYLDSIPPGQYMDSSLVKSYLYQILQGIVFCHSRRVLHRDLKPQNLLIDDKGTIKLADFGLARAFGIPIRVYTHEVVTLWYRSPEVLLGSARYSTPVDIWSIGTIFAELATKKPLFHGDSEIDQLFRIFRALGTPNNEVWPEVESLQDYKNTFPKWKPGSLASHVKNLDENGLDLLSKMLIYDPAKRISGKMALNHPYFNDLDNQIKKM
# Sequence of CDK1 (P14635 whole entry partner): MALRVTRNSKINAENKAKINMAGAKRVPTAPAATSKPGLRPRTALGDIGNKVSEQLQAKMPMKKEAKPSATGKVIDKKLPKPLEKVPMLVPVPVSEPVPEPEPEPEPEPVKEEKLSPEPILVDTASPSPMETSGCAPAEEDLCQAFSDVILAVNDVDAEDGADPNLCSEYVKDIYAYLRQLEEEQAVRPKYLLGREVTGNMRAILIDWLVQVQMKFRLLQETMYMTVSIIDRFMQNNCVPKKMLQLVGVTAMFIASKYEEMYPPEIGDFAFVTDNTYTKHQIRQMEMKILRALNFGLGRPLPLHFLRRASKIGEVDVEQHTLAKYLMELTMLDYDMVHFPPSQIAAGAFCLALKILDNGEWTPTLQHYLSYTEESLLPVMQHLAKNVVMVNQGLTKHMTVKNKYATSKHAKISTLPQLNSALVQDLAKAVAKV
# Sequence of CDK5 (Q00535 whole entry): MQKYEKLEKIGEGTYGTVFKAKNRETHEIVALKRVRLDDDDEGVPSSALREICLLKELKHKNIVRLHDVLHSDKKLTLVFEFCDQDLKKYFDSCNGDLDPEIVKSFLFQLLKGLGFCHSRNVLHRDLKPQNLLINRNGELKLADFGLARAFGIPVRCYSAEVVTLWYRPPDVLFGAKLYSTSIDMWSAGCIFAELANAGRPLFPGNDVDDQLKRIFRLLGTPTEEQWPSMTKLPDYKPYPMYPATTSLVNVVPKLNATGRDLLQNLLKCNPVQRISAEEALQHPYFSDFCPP
# Sequence of CDK5 (Q15078 whole entry partner): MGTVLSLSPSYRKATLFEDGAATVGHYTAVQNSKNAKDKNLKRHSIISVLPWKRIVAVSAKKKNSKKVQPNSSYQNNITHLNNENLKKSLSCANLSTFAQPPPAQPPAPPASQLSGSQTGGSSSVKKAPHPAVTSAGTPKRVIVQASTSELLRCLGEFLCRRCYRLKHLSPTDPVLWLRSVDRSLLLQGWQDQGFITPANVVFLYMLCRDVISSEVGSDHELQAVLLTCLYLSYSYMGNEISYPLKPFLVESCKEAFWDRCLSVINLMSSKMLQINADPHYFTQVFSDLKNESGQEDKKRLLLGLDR
# Sequence of CDK9 (P50750 whole entry): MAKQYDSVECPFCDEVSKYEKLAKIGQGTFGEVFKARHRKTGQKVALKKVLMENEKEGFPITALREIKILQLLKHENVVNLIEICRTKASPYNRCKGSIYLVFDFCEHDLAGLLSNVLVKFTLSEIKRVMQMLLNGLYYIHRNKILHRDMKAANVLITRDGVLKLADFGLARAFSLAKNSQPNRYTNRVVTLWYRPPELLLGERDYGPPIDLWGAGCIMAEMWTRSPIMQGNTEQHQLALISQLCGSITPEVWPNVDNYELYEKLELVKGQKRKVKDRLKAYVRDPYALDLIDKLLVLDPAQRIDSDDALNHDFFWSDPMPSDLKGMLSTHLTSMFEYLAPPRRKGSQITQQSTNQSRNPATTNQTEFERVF
# Sequence of CDK9 (O60563 whole entry partner): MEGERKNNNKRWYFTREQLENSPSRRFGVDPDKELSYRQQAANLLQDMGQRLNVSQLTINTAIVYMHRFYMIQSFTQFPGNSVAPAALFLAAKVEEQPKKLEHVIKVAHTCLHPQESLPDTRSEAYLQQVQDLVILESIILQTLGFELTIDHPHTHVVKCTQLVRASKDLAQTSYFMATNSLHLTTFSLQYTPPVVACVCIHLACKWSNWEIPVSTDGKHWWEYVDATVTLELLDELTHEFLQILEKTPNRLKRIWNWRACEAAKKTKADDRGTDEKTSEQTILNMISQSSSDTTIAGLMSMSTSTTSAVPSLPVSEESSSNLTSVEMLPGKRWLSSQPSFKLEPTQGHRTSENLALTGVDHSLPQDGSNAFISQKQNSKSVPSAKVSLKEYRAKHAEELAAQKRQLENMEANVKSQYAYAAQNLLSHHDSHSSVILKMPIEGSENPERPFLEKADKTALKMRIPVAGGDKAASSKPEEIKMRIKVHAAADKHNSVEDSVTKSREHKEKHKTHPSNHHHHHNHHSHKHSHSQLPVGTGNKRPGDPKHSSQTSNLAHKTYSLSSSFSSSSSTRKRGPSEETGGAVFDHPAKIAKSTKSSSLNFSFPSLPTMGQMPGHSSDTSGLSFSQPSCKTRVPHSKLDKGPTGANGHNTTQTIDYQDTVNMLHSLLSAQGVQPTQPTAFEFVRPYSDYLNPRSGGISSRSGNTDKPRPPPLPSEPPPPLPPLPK
compound,measurement,setting,value
"CN1C/C=C/CCOc2cccc(c2)-c2ccnc(n2)Nc2cccc(c2)C1 [Form X (citrate), (16E)-14-methyl-20-oxa-5,7,14,26-tetraazatetracyclo[19.3.1.1(2,6).1(8,12)]heptacosa-1(25),2(26),3,5,8(27),9,11,16,21,23-decaene]",XRPD following storage at elevated temperatures and relative humidity,[1]; [7],remained unchanged by XRPD
same,XRPD following GVS analysis,[2],remained unchanged by XRPD
same,Hygroscopicity by GVS analysis,[2],non-hygroscopic
same,GVS uptake,[2],0.13%
same,GVS maximum hysteresis,[2]; between 40-60% RH,0.04%
same,Thermodynamic solubility,[3],0.64 mg/mL
CN1C/C=C/CCOc2cccc(c2)-c2ccnc(n2)Nc2cccc(c2)C1 [TG02 (Citrate)],TG02 (Citrate) Polymorph recovered (XRPD),"[4]; Acetone 20 vol., 5° C.",Form X
same,TG02 (Citrate) Polymorph recovered (XRPD),"[4]; Acetone 20 vol., 25° C.",Form X
same,TG02 (Citrate) Polymorph recovered (XRPD),"[4]; Acetone 20 vol., 50° C.",Form X
same,TG02 (Citrate) Polymorph recovered (XRPD),"[4]; Acetone:H2O (9:1) 20 vol., 5° C.",Pattern 2
same,TG02 (Citrate) Polymorph recovered (XRPD),"[4]; Acetone:H2O (9:1) 20 vol., 25° C.",Pattern 2
same,TG02 (Citrate) Polymorph recovered (XRPD),"[4]; Acetone:H2O (9:1) 20 vol., 50° C.",Pattern 2
same,TG02 (Citrate) Polymorph recovered (XRPD),"[4]; DCM:H2O (9:1) 20 vol., 5° C.",Pattern 2 + Form X
same,TG02 (Citrate) Polymorph recovered (XRPD),"[4]; DCM:H2O (9:1) 20 vol., 25° C.",Pattern 2
same,TG02 (Citrate) Polymorph recovered (XRPD),"[4]; DCM:H2O (9:1) 20 vol., 50° C.",Form X
same,TG02 (Citrate) Polymorph recovered (XRPD),"[4]; EtOAc 20 vol., 5° C.",Pattern 2 + Form X
same,TG02 (Citrate) Polymorph recovered (XRPD),"[4]; EtOAc 20 vol., 25° C.",Form X
same,TG02 (Citrate) Polymorph recovered (XRPD),"[4]; EtOAc 20 vol., 50° C.",Form X
same,TG02 (Citrate) Polymorph recovered (XRPD),"[4]; H2O 20 vol., 5° C.",Pattern 2
same,TG02 (Citrate) Polymorph recovered (XRPD),"[4]; H2O 20 vol., 25° C.",Pattern 2
same,TG02 (Citrate) Polymorph recovered (XRPD),"[4]; H2O 20 vol., 50° C.",Pattern 2
same,TG02 (Citrate) Polymorph recovered (XRPD),"[4]; IPA 20 vol., 5° C.",Form X
same,TG02 (Citrate) Polymorph recovered (XRPD),"[4]; IPA 20 vol., 25° C.",Form X
same,TG02 (Citrate) Polymorph recovered (XRPD),"[4]; IPA 20 vol., 50° C.",Form X
same,TG02 (Citrate) Polymorph recovered (XRPD),"[4]; TBME 20 vol., 5° C.",Pattern 2 + Form X
same,TG02 (Citrate) Polymorph recovered (XRPD),"[4]; TBME 20 vol., 25° C.",Pattern 2 + Form X
same,TG02 (Citrate) Polymorph recovered (XRPD),"[4]; TBME 20 vol., 50° C.",Form X
same,TG02 (Citrate) Polymorph recovered (XRPD),"[4]; THF:H2O (9:1) 20 vol., 5° C.",Pattern 2
same,TG02 (Citrate) Polymorph recovered (XRPD),"[4]; THF:H2O (9:1) 20 vol., 25° C.",Pattern 2
same,TG02 (Citrate) Polymorph recovered (XRPD),"[4]; THF:H2O (9:1) 20 vol., 50° C.",Pattern 2
"CN1C/C=C/CCOc2cccc(c2)-c2ccnc(n2)Nc2cccc(c2)C1 [TG02 Citrate Pattern 1, (16E)-14-methyl-20-oxa-5,7,14,26-tetraazatetracyclo[19.3.1.1(2,6).1(8,12)]heptacosa-1(25),2(26),3,5,8(27),9,11,16,21,23-decaene]",XRPD following storage at elevated temperatures and relative humidity,[1]; [7],remained unchanged by XRPD
same,XRPD following GVS analysis,[2],remained unchanged by XRPD
same,Hygroscopicity by GVS analysis,[2],slightly-hygroscopic
same,GVS uptake,[2],1.0%
same,GVS maximum hysteresis,[2]; between 40-50% RH,0.2%
same,XRPD following thermodynamic solubility analysis,[3],form change from TG02 Citrate Pattern 1 to TG02 Citrate Pattern 2
same,Thermodynamic solubility,[3],0.33 mg/mL
"CN1C/C=C/CCOc2cccc(c2)-c2ccnc(n2)Nc2cccc(c2)C1 [TG02 Citrate Pattern 2, (16E)-14-methyl-20-oxa-5,7,14,26-tetraazatetracyclo[19.3.1.1(2,6).1(8,12)]heptacosa-1(25),2(26),3,5,8(27),9,11,16,21,23-decaene]",XRPD following storage at elevated temperatures and relative humidity,[1]; 40° C./75% RH and 25° C./97% RH,remained unchanged by XRPD
same,XRPD following storage,"[1]; 60° C./ambient RH, peaks remained throughout 28 days",additional peaks being present in the XRPD diffractogram after 7 days
same,XRPD following GVS analysis,[2],remained unchanged by XRPD
same,Hygroscopicity by GVS analysis,[2],hygroscopic
same,GVS uptake,[2],3.84%
same,GVS maximum hysteresis,[2]; between 10-30% RH,1.4%
same,XRPD following thermodynamic solubility analysis,[3],remained unchanged by XRPD
same,Thermodynamic solubility,[3],0.23 mg/mL
"CN1C/C=C/CCOc2cccc(c2)-c2ccnc(n2)Nc2cccc(c2)C1 [TG02, (16E)-14-methyl-20-oxa-5,7,14,26-tetraazatetracyclo[19.3.1.1(2,6).1(8,12)]heptacosa-1(25),2(26),3,5,8(27),9,11,16,21,23-decaene]",Inhibition of CDK1,CDK1,inhibits
same,Inhibition of CDK2,CDK2,inhibits
same,Inhibition of CDK5,CDK5,inhibits
same,Inhibition of CDK7,CDK7,inhibits
same,Inhibition of CDK9,CDK9,inhibits
same,Inhibition of JAK2,JAK2,inhibits
same,Inhibition of FLT3,FLT3,inhibits
same,"Inhibition of signaling pathways downstream of CDKs, JAK2 and FLT3",[5],dose-dependently inhibits
same,Anti-proliferative activity,tumor cell lines; broad range of tumor cell lines,anti-proliferative
same,Cell cycle arrest and apoptosis,tumor cell lines; tumor cell lines,inducing Gi cell cycle arrest and apoptosis
same,Sensitivity of primary cultures to TG02,[6],very sensitive
